Data set [1] is described as follows: Inhibition of ABCB1 (unknown origin) expressed in HEK293T cells assessed as reduction in paclitaxel IC50 at 1 uM pre-incubated for 4 hrs followed by paclitaxel addition and measured after 72 hrs by MTT assay.
Data set [2] can be described thus: Inhibition of ABCB1 (unknown origin) expressed in HEK293T cells assessed as reduction in paclitaxel IC50 at 2 uM pre-incubated for 4 hrs followed by paclitaxel addition and measured after 72 hrs by MTT assay. A general note: Formazan colour is commonly taken as a measure of viable cells.
The nature of data set [3]: Inhibition of ABCB1 (unknown origin) expressed in HEK293T cells assessed as reduction in colchicine IC50 at 1 uM pre-incubated for 4 hrs followed by colchicine addition and measured after 72 hrs by MTT assay.
Data set [4] can be described thus: Inhibition of ABCB1 (unknown origin) expressed in HEK293T cells assessed as reduction in colchicine IC50 at 2 uM pre-incubated for 4 hrs followed by colchicine addition and measured after 72 hrs by MTT assay.
Data set [5] is described as follows: Inhibition of ABCB1 (unknown origin) expressed in HEK293T cells assessed as reduction in paclitaxel IC50 at 0.5 uM pre-incubated for 4 hrs followed by paclitaxel addition and measured after 72 hrs by MTT assay.
Data set [6] in a line: Inhibition of ABCB1 (unknown origin) expressed in HEK293T cells assessed as reduction in colchicine IC50 at 0.5 uM pre-incubated for 4 hrs followed by colchicine addition and measured after 72 hrs by MTT assay.

The record followed here is BindingDB's records for doi:10.1021/acs.jmedchem.1c01452 (Zhengzhou University, 2021).

Consider `COc1cc2ncnc(-c3c(-c4ccccc4)n(Cc4ccccc4Br)c4ccccc34)c2cc1OCCCN1CCOCC1`, for which the IC50 – broadly, the concentration at which inhibition is half-maximal – in data set [1] came out at 12.2 µM; in data set [2], 3.6 µM; in data set [3], 101 µM; in data set [4], 22.2 µM; in data set [5], 30.5 µM; in data set [6], 321 µM.
